Data as given in publication PMC9798004 (Frontiers in Psychiatry, 2022).
Structures can show the parent of a compound that is named as a salt. No end group written: not given here.

Experiments:
Assay type in all cases: cell-based
[1] = molecular target: PTGER4 (Homo sapiens, UniProt P35408); assay: PathHunter β-arrestin assay; settings: follow-up assays, control antagonist
Procedure: (§1) Follow up experiments were prioritized based on the difference between S/N and CoV. Targets with a >5-fold difference between S/N and CoV were investigated for their potential contribution to the AMB-FUBINACA toxidrome with 10-point concentration-response curves generated in technical replicate (range 1.5–30 μM) using the EC80 of the relevant agonist, where applicable in antagonist mode. Simultaneous agonist and antagonist curves were run in parallel to ensure reliability of the assay (see Supplementary Table 2), with both RC50 and signal to background aligning with historical averages, and Z' >0.5. RC50 was estimated using a four-parameter fit (CBIS Data Analysis Suite, ChemInnovation, San Diego, CA) on normalized data.

[2] = test system: 168 GPCRs; assay: gpcrMAX panel 30 μM single-point β-arrestin screen (agonist and antagonist mode); settings: antagonist mode
Procedure: Activity, or a “hit,” was defined as >30% in agonist mode, >35% in antagonist mode, or >50% in the orphan screen (agonist mode). Where these criteria were met, signal-to-noise (S/N) and coefficient of variation (CoV) were also calculated, defined as: […]
Agonist mode Antagonist modeS/N Compound mean/Baseline mean+(Baseline SD×3) EC80 mean/Compound-(Compound SD× 3)CoV Baseline mean/Compound mean-(Compound SD× 3) Compound mean/EC80 mean-(EC80 SD × 3)
Hits were verified to have S/N>1 and a CoV <1. Thresholds and subsequent validation were guided by Eurofins. Descriptive data (means ± S.E.M) was generated in Graphpad Prism (version 9.2.0, San Diego, CA).

[3] = molecular target: T1, GPR119 (Homo sapiens, UniProt Q8TDV5); assay: PathHunter β-arrestin assay; settings: for inhibition in single-point screen: antagonist mode, 30 μM
T1 construct: purchased Eurofins DiscoverX (PathHunter gpcrMAX)
T1 sequence (Q8TDV5 1-335): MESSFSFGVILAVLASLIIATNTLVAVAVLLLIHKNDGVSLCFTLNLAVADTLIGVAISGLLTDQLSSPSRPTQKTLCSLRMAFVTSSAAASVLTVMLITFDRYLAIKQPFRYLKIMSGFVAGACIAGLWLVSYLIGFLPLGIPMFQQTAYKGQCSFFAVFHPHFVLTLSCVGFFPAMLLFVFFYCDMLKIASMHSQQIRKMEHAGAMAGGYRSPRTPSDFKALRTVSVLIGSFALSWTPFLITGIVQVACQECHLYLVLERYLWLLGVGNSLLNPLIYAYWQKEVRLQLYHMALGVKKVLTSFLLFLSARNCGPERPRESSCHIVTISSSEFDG

[4] = test system: AtT20 cells wildtype (WT); assay: LDH release cytotoxicity assay; settings: 30 μM
Procedure: AtT20 cells expressing either human CB1 (hCB1) or CB2 (hCB2) receptors or wildtype (WT) were grown to confluence in T75 cm^2 flasks in Dulbecco's modified eagle medium containing 10% fetal bovine serum, 100 U penicillin/streptomycin, and 80 μg/mL hygromicyin (Sigma-Aldrich/Merck; Castle Hill, NSW, Australia). Cells were plated in 96-well-microplates at 30,000 cells per well and allowed to adhere overnight in 5% CO2. The following morning, cells were treated with either vehicle (0.1% DMSO; negative control), 30 μM Δ^9-THC, or 30 μM AMB-FUBINACA. At 1 or 6 h, the amount of lactate dehydrogenase in the cell media was tested, and compared with positive control (lysed cells) as per manufacturer's instructions (Dojindo Molecular Technologies, Inc.; Rockville, MD, USA), with readings performed on a Clariostar Plus plate reader (BMG Labtech, Mornington, VIC, Australia). Experiments were performed in triplicate. In order to measure any accumulating LDH, media was not changed after initial incubation. Data is represented as means ± S.E.M. A two-way ANOVA with was performed on the data at each time point, with Tukey's multiple comparison test (α = 0.05). A p < 0.05 was considered statistically significant.

[5] = molecular target: T2, ADRA2C (Homo sapiens, UniProt P18825); assay: PathHunter β-arrestin assay; settings: control agonist
T2 sequence (P18825 1-462): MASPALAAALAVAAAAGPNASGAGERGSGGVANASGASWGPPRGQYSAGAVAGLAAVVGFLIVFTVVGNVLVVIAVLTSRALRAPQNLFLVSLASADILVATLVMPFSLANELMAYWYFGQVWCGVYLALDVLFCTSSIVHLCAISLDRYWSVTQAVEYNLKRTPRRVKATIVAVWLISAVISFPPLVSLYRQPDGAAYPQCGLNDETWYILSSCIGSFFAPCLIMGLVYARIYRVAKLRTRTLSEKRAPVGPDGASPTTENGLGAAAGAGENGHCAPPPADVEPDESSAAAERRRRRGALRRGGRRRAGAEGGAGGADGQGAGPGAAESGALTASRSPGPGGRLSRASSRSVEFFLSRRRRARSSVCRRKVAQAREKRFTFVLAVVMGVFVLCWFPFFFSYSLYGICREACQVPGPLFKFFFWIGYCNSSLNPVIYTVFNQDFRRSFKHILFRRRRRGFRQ

[6] = molecular target: T3, CCR6 (Homo sapiens, UniProt P51684); assay: PathHunter β-arrestin assay; settings: control agonist
T3 construct: purchased Eurofins DiscoverX (PathHunter gpcrMAX)
T3 sequence (P51684 1-374): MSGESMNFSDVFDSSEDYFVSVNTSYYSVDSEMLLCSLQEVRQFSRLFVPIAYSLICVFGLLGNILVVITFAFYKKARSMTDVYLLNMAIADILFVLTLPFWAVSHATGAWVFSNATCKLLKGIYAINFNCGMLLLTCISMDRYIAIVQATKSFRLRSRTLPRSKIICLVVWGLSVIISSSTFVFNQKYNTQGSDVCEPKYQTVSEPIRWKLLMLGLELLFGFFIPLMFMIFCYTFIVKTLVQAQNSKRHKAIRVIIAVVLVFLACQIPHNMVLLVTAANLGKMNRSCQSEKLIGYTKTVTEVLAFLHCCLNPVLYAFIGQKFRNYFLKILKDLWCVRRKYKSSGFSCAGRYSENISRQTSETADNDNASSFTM
Procedure: as §1

[7] = molecular target: P2RY6 (Homo sapiens, UniProt Q15077); assay: PathHunter β-arrestin assay
Chain of P2RY6 (Q15077 whole entry): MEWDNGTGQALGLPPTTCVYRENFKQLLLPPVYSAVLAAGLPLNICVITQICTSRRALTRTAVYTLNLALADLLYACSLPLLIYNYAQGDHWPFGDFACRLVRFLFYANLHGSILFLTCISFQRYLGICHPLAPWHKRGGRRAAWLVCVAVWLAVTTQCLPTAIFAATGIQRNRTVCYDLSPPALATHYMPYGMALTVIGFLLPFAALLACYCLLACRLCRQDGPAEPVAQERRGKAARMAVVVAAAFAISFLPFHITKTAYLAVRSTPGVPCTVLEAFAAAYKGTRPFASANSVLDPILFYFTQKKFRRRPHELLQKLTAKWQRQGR
Procedure: as §1

[8] = molecular target: T4, CCR4 (Homo sapiens, UniProt P51679); assay: PathHunter β-arrestin assay; settings: for EC80: control agonist
T4 sequence (P51679 1-360): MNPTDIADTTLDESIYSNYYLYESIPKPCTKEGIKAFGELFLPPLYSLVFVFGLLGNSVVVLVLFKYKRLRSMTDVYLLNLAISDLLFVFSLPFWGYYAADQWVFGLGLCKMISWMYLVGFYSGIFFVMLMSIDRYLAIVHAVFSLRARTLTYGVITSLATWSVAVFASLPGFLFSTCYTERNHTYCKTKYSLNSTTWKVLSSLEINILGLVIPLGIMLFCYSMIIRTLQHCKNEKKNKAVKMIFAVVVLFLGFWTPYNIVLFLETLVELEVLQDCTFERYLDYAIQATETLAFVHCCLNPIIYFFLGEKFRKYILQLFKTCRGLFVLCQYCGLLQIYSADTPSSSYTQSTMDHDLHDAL
Procedure: as §1

[9] = molecular target: GPR35 (Homo sapiens, UniProt Q9HC97); assay: PathHunter β-arrestin assay; settings: control agonist
Chain of GPR35 (Q9HC97 whole entry): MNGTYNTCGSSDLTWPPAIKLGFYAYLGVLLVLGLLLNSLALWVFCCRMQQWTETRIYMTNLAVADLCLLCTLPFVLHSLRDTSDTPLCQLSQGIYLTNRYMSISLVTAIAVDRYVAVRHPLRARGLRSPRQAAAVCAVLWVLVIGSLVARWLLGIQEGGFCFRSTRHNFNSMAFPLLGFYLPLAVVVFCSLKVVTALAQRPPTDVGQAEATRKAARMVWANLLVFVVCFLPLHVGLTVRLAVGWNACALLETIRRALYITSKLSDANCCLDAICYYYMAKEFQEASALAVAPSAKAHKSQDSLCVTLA

[10] = molecular target: T5, HCRTR1 (Homo sapiens, UniProt O43613); assay: PathHunter β-arrestin assay; settings: control agonist
T5 sequence (O43613 1-425): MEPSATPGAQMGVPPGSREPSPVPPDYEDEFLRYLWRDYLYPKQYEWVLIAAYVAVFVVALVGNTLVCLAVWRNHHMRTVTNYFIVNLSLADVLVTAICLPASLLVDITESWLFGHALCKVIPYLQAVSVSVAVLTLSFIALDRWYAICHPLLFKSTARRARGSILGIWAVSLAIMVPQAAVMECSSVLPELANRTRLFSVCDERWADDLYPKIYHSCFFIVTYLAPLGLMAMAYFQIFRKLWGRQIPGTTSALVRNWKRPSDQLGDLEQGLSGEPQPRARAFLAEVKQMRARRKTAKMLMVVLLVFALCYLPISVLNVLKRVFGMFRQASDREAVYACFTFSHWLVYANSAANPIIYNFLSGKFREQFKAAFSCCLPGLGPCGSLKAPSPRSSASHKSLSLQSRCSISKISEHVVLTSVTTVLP
Procedure: as §1

[11] = molecular target: CCR8 (Homo sapiens, UniProt P51685); assay: PathHunter β-arrestin assay; settings: control agonist
Procedure: as §1

[12] = molecular target: T6, CCR9 (Homo sapiens, UniProt P51686); assay: PathHunter β-arrestin assay; settings: control agonist
T6 construct: purchased Eurofins DiscoverX (PathHunter gpcrMAX)
T6 sequence (P51686 1-369): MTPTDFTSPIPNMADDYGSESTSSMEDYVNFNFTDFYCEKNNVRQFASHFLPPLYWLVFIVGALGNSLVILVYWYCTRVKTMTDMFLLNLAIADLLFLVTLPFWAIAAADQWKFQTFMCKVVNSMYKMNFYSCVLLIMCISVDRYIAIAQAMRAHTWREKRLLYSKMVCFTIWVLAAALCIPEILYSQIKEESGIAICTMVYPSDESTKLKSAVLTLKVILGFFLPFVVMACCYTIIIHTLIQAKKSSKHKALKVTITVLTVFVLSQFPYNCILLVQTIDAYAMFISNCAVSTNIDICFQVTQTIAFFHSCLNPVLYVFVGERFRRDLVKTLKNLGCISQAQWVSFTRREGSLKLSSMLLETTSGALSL
Procedure: as §1

[13] = follow-up concentration-response assays
[14] = follow-up assays, control antagonist

Chain of PTGER4 (P35408 whole entry): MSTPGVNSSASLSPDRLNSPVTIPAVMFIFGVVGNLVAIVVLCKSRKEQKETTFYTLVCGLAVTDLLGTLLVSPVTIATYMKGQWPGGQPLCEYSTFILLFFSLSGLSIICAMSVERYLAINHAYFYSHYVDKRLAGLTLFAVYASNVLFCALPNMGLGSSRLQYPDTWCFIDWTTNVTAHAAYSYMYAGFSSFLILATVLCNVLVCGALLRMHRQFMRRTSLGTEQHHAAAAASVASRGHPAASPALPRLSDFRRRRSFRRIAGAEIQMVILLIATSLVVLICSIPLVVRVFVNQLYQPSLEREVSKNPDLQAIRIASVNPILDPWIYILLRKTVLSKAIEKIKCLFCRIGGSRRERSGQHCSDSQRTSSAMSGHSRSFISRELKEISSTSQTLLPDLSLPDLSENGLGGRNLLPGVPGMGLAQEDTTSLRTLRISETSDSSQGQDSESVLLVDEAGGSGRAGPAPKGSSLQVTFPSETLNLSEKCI

CCCCc1nn(-c2ccccc2C(F)(F)F)c(=O)n1Cc1ccc(-c2ccccc2S(=O)(=O)NC(=O)c2sccc2C)cc1 [L 161,982]
IC50 [1]: 15.9 nM

COC(=O)C(NC(=O)c1nn(CCCCF)c2ccccc12)C(C)(C)C (centres unmarked) [4F-MDMB-BUTINACA]
number of off-targets inhibited (>35%) [2]: 16

CCCCCn1nc(C(=O)NC(C)(C)c2ccccc2)c2ccccc21 [CUMYL-PINACA]
number of off-targets inhibited (>35%) [2]: inhibited the greatest number of targets
inhibition in single-point screen [3]: inhibited to the greatest extent of any antagonist mode target

CCCCCc1cc(O)c2c(c1)OC(C)(C)[C@@H]1CCC(C)=C[C@@H]21 [THC, Δ^9-tetrahydrocannabinol]
LDH in cell media, normalized to total LDH ([4]; 1 h): 22.40 ± 3.44%
LDH increase compared with vehicle ([4]; 6 h): no effect was observed

Brc1c(NC2=NCCN2)ccc2nccnc12 [UK 14,304]
EC80 [5, 13]: 123.1 nM
EC80 ([5]; screen, CHO, RT, 2HR): 111 nM

CCCCCn1cc(C(=O)Oc2cccc3cccnc23)c2ccccc21 [PB-22]
number of off-targets inhibited (>35%) [2]: 20

CCL20: control agonist
EC80 [6, 13]: 44.68 nM
EC80 ([6]; screen, CHO, 37C, 2HR): 44.7 nM

CCCCCCCC/C=C\CCCCCCCC(=O)NCCO [Oleoyl Ethanolamide]
EC80 ([3]; screen, control agonist, HEK, 37C, 2HR): 4310 nM

O=c1ccn([C@@H]2O[C@H](COP(=O)(O)OP(=O)(O)O)[C@@H](O)[C@H]2O)c(=O)[nH]1 [UDP]
EC80 ([7]; follow-up concentration-response assays, control agonist): 74.88 nM

S=C=Nc1cccc(NC(=S)NCCCCNC(=S)Nc2cccc(N=C=S)c2)c1 [MRS 2578]
IC50 [7, 14]: 2520 nM

COc1cc2nc(N3CCC(N4CCCCC4)CC3)nc(NC3CCCCCC3)c2cc1OC [C 021 dihydrochloride]
IC50 [8, 14]: 2.58 nM

CCCCCn1nc(C(=O)NC23CC4CC(CC(C4)C2)C3)c2ccccc21 [AKB-48]
inhibition in single-point screen [3]: inhibited to the greatest extent of any antagonist mode target

CCCOc1ccccc1-c1nc2nn[nH]c2c(=O)[nH]1 [Zaprinast]
EC80 [9, 13]: 4048 nM
EC80 ([9]; screen, CHO, 37C, 2HR): 12100 nM

Orexin A (QPLPDCCRQKTCSCRLYELLHGAGNHAAGILTL; not fully specified (residue 1, C-terminus, bridges); cysteine pairing not given here; UniProt O43612 34-66, looked up) [control agonist]
EC80 [10, 13]: 10.62 nM
EC80 ([10]; screen, CHO, 37C, 2HR): 10.6 nM

B1: CCL1: control agonist (protein, UniProt P22362 24-96, looked up)
C-C motif chemokine 1: KSMQVPFSRCCFSFAEQEIPLRAILCYRNTSSICSNEGLIFKLKRGKEACALDTVGWVQRHRKMLRHCPSKRK
EC80 [11, 13]: 157.4 nM
EC80 ([11]; screen, CHO, 37C, 2HR): 157 nM

B2: CCL25: control agonist (protein, UniProt O15444 24-150, looked up)
C-C motif chemokine 25: QGVFEDCCLAYHYPIGWAVLRRAWTYRIQEVSGSCNLPAAIFYLPKRHRKVCGNPKSREVQRAMKLLDARNKVFAKLHHNTQTFQAGPHAVKKLSSGNSKLSSSKFSNPISSSKRNVSLLISANSGL
EC80 [12, 13]: 350 nM
EC80 ([12]; screen, CHO, 37C, 2HR): 370 nM

B3: CCL22: control agonist (protein, UniProt O00626 25-93, looked up)
C-C motif chemokine 22: GPYGANMEDSVCCRDYVRYRLPLRVVKHFYWTSDSCPRPGVVLLTFRDKEICADPRVPWVKMILNKLSQ
EC80 [8, 13]: 19.61 nM
EC80 ([8]; screen, CHO, 37C, 2HR): 6.54 nM
